The supplement of paper PMC10307832

What follows are cell lines tested with Cc1nc(NC(=O)N2CCC[C@H]2C(N)=O)sc1-c1ccnc(C(C)(C)C(F)(F)F)c1 [Alpelisib] + Nc1nc2[nH]cc(CCc3ccc(C(=O)N[C@@H](CCC(=O)O)C(=O)O)cc3)c2c(=O)[nH]1 [Pemetrexed] (partner 0.2 µM) (assay: relative viability (nuclei count vs DMSO), 5 days (fraction); higher = more cells survive). Conditions: first compound 4 µM.
Summary of the method: (§1)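 Lung cancer cell lines in 1536-well plates were dosed by pin tool the day after seeding, either with one drug alone or with a fixed anchor-drug dose plus five library-drug doses (not always all listed) in √10 steps. After 5 days, cells were fixed and their nuclei stained in one step (final 0.05% Triton X-100, 1% formaldehyde, 1 ug/ml Hoechst), then counted on 4× images. Relative viability is the nuclei count in treated wells divided by that in vehicle wells. Values are medians of duplicate plates.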

Cell Line | relative viability
NCI-H1395 | 0.714
SW 900 | 0.405

Each cell line was assayed with Cc1nc(NC(=O)N2CCC[C@H]2C(N)=O)sc1-c1ccnc(C(C)(C)C(F)(F)F)c1 [Alpelisib] + C[C@@H](Oc1cc(-c2cnn(C3CCNCC3)c2)cnc1N)c1c(Cl)ccc(F)c1Cl [Crizotinib] (partner 1 µM) in the same assay as above. Conditions: first compound 0.04 µM.
Summary of the method: as §1

Cell Line | relative viability
NCI-H2126 | 1.02
EPLC-272H | 0.75
NCI-H1755 | 0.828
NCI-H2023 | 0.53
NCI-H1650 | 1.01
H3255 | 0.85
NCI-H1975 | 0.877
PC-14 | 0.817
NCI-H1299 | 0.935
NCI-H1437 | 0.904
HOP-62 | 0.97
HCC-44 | 0.78
BEN | 0.956
LOU-NH91 | 0.743
NCI-H661 | 0.968
NCI-H1651 | 0.845

Cell Line | relative viability
PC-3 [JPC-3] | 1.03
SW 1573 | 0.867
LK-2 | 0.284
NCI-H2405 | 0.858
NCI-H1703 | 0.465
NCI-H1993 | 0.817
ChaGo-K-1 | 1.13
NCI-H1355 | 1.07
HCC-366 | 0.488
NCI-H1915 | 0.903
ABC-1 | 1.19
Calu-6 | 0.772
NCI-H727 | 0.839
EBC-1 | 0.229
A549 | 0.698
IA-LM | 0.829

Same assay, conditions: first compound 0.1265 µM

Cell Line | relative viability
NCI-H2126 | 0.957
EPLC-272H | 0.788
NCI-H1755 | 0.819
NCI-H2023 | 0.565
NCI-H1650 | 0.941
H3255 | 1.05
NCI-H1975 | 1.01
PC-14 | 0.893
NCI-H1299 | 0.943
NCI-H1437 | 0.919
HOP-62 | 0.714
HCC-44 | 0.723
BEN | 0.95
LOU-NH91 | 0.702
NCI-H661 | 0.96
NCI-H1651 | 0.906

Cell Line | relative viability
PC-3 [JPC-3] | 1.05
SW 1573 | 0.784
LK-2 | 0.188
NCI-H2405 | 0.772
NCI-H1703 | 0.576
NCI-H1993 | 0.845
NCI-H1355 | 1.11
HCC-366 | 0.459
NCI-H1915 | 0.936
ABC-1 | 1.28
Calu-6 | 0.691
NCI-H727 | 0.771
EBC-1 | 0.177
A549 | 0.707
IA-LM | 0.643

Same assay, conditions: first compound 0.4 µM

Cell Line | relative viability
NCI-H2126 | 0.992
EPLC-272H | 1.09
NCI-H1755 | 0.966
NCI-H2023 | 0.476
NCI-H1650 | 1.02
H3255 | 1.16
NCI-H1975 | 0.968
PC-14 | 1.04
NCI-H1299 | 1
NCI-H1437 | 1
HOP-62 | 0.884
HCC-44 | 0.833
BEN | 1.04
LOU-NH91 | 0.758
NCI-H661 | 1.07
NCI-H1651 | 0.889

Cell Line | relative viability
PC-3 [JPC-3] | 1.07
SW 1573 | 0.689
LK-2 | 0.215
NCI-H2405 | 0.889
NCI-H1703 | 0.539
NCI-H1993 | 0.799
ChaGo-K-1 | 1.15
NCI-H1355 | 1.09
HCC-366 | 0.585
NCI-H1915 | 0.988
ABC-1 | 1.04
Calu-6 | 0.911
NCI-H727 | 0.891
EBC-1 | 0.204
A549 | 0.625
IA-LM | 1.23

Same assay, conditions: first compound 1.265 µM

Cell Line | relative viability
NCI-H2126 | 0.88
EPLC-272H | 0.713
NCI-H1755 | 0.801
NCI-H2023 | 0.389
NCI-H1650 | 0.847
H3255 | 0.631
NCI-H1975 | 0.753
PC-14 | 0.842
NCI-H1299 | 0.996
NCI-H1437 | 0.906
HOP-62 | 0.733
HCC-44 | 0.773
BEN | 0.884
LOU-NH91 | 0.627
NCI-H661 | 1.01
NCI-H1651 | 0.784

Cell Line | relative viability
PC-3 [JPC-3] | 0.901
SW 1573 | 0.649
LK-2 | 0.233
NCI-H2405 | 0.662
NCI-H1703 | 0.277
NCI-H1993 | 0.603
ChaGo-K-1 | 0.988
NCI-H1355 | 0.809
HCC-366 | 0.215
NCI-H1915 | 0.78
ABC-1 | 0.886
Calu-6 | 0.753
NCI-H727 | 0.717
EBC-1 | 0.199
A549 | 0.389
IA-LM | 0.718

Same assay, conditions: first compound 4 µM

Cell Line | relative viability
NCI-H2126 | 0.735
EPLC-272H | 0.653
NCI-H1755 | 0.578
NCI-H2023 | 0.257
NCI-H1650 | 0.956
H3255 | 0.675
NCI-H1975 | 0.68
PC-14 | 0.766
NCI-H1299 | 0.936
NCI-H1437 | 0.942
HOP-62 | 0.72
HCC-44 | 0.634
BEN | 0.866
LOU-NH91 | 0.59
NCI-H661 | 0.937
NCI-H1651 | 0.694
PC-3 [JPC-3] | 0.969
SW 1573 | 0.593
LK-2 | 0.252
NCI-H2405 | 0.735
NCI-H1703 | 0.35
NCI-H1993 | 0.604
ChaGo-K-1 | 0.841
NCI-H1355 | 0.824
HCC-366 | 0.0795
NCI-H1915 | 0.8
ABC-1 | 0.713
Calu-6 | 0.559
NCI-H727 | 0.508
